Experimental data: patent EP4471049A1 (Zealand Pharma A/S, priority 2023, dated 2024)
*1 amine or outer side, *2 acyl side, *3 side chain or, on linkers, in order; H or OH if unused. Where a SMILES comes first, the peptide text is derived from it. Bridges are numbered along the chain shown (N, C = ends). [ ]: non-standard residue; d: D form. 2Nal = N[C@@H](Cc1ccc2ccccc2c1)C(=O)O; AEF = NCCOc1ccc(C[C@H](N)C(=O)O)cc1; X1 = O=C(Cc1ccc(CN[*:1])cc1)[*:2]; 3Pal = N[C@@H](Cc1cccnc1)C(=O)O; αMeL = CC(C)C[C@](C)(N)C(=O)O; Dab = NCC[C@H](N)C(=O)O

How the values were obtained:
human IL-23R = molecular target: T1, human IL-23R (Homo sapiens, UniProt Q5VWK5); assay: biochemical
T1 sequence (Q5VWK5 22-629): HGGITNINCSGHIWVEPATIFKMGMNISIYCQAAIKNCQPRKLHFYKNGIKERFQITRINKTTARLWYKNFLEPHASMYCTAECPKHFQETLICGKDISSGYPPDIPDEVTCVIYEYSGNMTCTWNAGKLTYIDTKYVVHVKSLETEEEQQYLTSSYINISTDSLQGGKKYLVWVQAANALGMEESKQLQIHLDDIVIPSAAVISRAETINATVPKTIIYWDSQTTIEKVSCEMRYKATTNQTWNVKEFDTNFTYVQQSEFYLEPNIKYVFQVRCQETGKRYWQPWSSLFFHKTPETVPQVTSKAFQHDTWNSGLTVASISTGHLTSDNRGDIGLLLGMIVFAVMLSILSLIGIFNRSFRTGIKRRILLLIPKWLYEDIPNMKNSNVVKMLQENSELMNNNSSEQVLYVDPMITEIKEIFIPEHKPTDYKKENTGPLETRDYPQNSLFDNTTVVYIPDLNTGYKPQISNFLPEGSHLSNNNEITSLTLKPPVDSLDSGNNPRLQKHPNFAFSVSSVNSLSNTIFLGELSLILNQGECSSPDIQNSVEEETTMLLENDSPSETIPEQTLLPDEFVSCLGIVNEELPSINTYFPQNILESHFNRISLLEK
Outline: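 Membranes from HEK293 cells stably expressing Nluc-tagged human IL-23R were incubated 2 h at room temperature with test compound and a fluorophore-labelled tracer. After substrate addition, loss of BRET (TAMRA over luciferase emission) reported tracer displacement. A 4PL fit gave IC50 values.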

[1] = Peptide stability in simulated intestinal fluid (SIF); format: in vitro ADME; details: pig, simulated intestinal fluid (SIF) with porcine pancreatin, 37 °C, pH 6.8, porcine pancreatin 10 g/L, 10 µM; for remaining at 4 h, 10 µM: read-out: SIF (% remaining 4 h)
Outline: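 Peptides were incubated at 37 °C with gentle shaking in pH 6.8 potassium phosphate SIF containing porcine pancreatin (10 g/L). Supernatants were analysed by LC-HRMS. Percent remaining at each timepoint, including 4 h, was calculated relative to time zero from absolute peak areas.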

[2] = Peptide stability in simulated gastric fluid (SGF); format: in vitro ADME; details: pig, simulated gastric fluid (SGF) with porcine pepsin, 37 °C, pH 1.2, porcine pepsin 3.2 g/L
Method: SGF was prepared by dissolving sodium chloride (0.2 g) in 50 mL of water. A volume of 0.7 mL of 10 M HCl was added to adjust the pH of the solution to 1.2 and the volume made up to 100 mL with water. […] SIF was prepared by dissolving monobasic potassium phosphate (0.68 g) in 50 mL of water and adjusting the pH to 6.8 with 1 M NaOH. The volume was subsequently made up to 100 mL with water. 200 mg porcine pancreatin (P1625, Sigma Aldrich) was gently dissolved into 20 mL preheated (37 °C) solution (10 g/L) immediately prior to the incubation.
The incubation was performed at 37 °C with gentle shaking. […] After the last timepoint, the sampling plate was mixed for 10 min on a shaking table and centrifuged 10 min at 2200 g. 70 µL resulting supernatant was diluted with 150 µL water, mixed and centrifugated before analysis by liquid chromatography high resolution mass spectrometry. […] Percent remaining at each timepoint was calculated relative to timepoint zero based on absolute peak areas.
Compounds with a SGF stability (after 4 h) above 70% are considered highly SGF stable. […] Table 3-4: SGF data

[3] = system: porcine pepsin (P7125, Sigma Aldrich); assay: SGF: sodium chloride, HCl, pH 1.2, with porcine pepsin (3.2 g/L); details: 37 °C, up to 4 hours
[4] = molecular target: T2, Nluc-IL23R fusion protein (human, UniProt Q5VWK5 22-629); assay: BRET competition vs TAMRA-labelled peptide, Nluc-IL23R membranes
T2 construct: range 22-629; expressed with a secretion signal in HEK293 cells; used as crude membrane preparation; also called hIL-23R; human IL-23R; not shown: Nanoluc protein from the expression plasmid N1371 (Promega), N-terminal of IL-23R
T2 sequence (looked up): T1 sequence (Q5VWK5 22-629)

[5] = molecular target: T3, human IL-23R endogenously expressed on DB cells (human, UniProt Q5VWK5 24-629); assay: cell-based or functional assay
T3 sequence (looked up): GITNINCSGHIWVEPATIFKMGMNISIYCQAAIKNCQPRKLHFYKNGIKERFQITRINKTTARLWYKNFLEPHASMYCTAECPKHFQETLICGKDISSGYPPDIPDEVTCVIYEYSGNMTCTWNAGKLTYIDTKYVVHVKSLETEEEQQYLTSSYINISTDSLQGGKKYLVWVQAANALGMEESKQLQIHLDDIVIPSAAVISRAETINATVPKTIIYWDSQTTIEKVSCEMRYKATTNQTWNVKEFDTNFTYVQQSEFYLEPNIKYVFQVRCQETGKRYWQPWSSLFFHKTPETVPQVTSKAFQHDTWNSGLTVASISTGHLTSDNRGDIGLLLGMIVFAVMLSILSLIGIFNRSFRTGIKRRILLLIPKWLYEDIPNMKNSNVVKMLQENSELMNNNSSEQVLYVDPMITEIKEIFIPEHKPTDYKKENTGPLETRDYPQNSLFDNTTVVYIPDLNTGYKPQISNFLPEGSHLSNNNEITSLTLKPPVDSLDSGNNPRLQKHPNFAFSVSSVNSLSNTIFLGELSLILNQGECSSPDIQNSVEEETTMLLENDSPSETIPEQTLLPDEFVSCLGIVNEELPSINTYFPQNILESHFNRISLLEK

In the case of `CNC(=O)[C@H](Cc1cccnc1)NC(=O)[C@](C)(CO)NC(=O)[C@@H]1CCC(=O)NCc2ccc(cc2)CC(=O)N[C@@H](CO)C(=O)N[C@H]2CCC(=O)NCC[C@H](NC(=O)[C@H](CCC(N)=O)NC(=O)[C@H](Cc3c[nH]c4ccccc34)NC2=O)C(=O)N[C@@H](Cc2ccc(OCCN)cc2)C(=O)N[C@@H](Cc2ccc3ccccc3c2)C(=O)N[C@@](C)(CC(C)C)C(=O)N1` [Compound 39, [4-Aminomethyl-phenylacetyl](1c)*SE(2c)WQ[Dab](2c)[Y(2-aminoethoxy)][2-Nal][2-Me-Leu]E(1c)[2-Me-Ser][3-(3-Pyridyl)-Ala]-[NHMe]], the Emax (human IL-23R; read-out: % displacement (hIL-23R binding)) is reported as 99%, the remaining at 1 h, 10 µM ([1]; 1 h) is reported as 100% and the remaining at 1 h, 10 µM [2] is reported as 99%.

With `CNC(=O)[C@H](Cc1cccnc1)NC(=O)[C@H](CO)NC(=O)[C@@H]1CCC(=O)NCc2ccc(cc2)CC(=O)N[C@@H](C)C(=O)N[C@H]2CCC(=O)NCC[C@H](NC(=O)[C@H](CCC(N)=O)NC(=O)[C@H](Cc3c[nH]c4ccccc34)NC2=O)C(=O)N[C@@H](Cc2ccc(OCCN)cc2)C(=O)N[C@@H](Cc2ccc3ccccc3c2)C(=O)N[C@@](C)(CC(C)C)C(=O)N1` [Compound 40, [4-Aminomethyl-phenylacetyl](1c)*AE(2c)WQ[Dab](2c)[Y(2-aminoethoxy)][2-Nal][2-Me-Leu]E(1c)S[3-(3-Pyridyl)-Ala]-[NHMe]] ([X1]AEWQ[Dab][AEF][2Nal][αMeL]ES[3Pal]-NHMe; lactam 3-6, N-10) the “% displacement (hIL-23R binding)” value (human IL-23R) was 100%, the IC50 (human IL-23R) was 0.019 nM and the remaining at 4 h, 10 µM [1] was 80%. For the same molecule, the remaining at 1 h, 10 µM [2] was 89%.

In the case of `CNC(=O)[C@H](Cc1cccnc1)NC(=O)[C@H](CCN)NC(=O)[C@@H]1CCC(=O)NCc2ccc(cc2)CC(=O)N[C@@H](C)C(=O)N[C@H]2CCC(=O)NCC[C@H](NC(=O)[C@H](CCC(N)=O)NC(=O)[C@H](Cc3c[nH]c4ccccc34)NC2=O)C(=O)N[C@@H](Cc2c[nH]c3ncccc23)C(=O)N[C@@H](Cc2ccc3ccccc3c2)C(=O)NC(C)(C)C(=O)N1` [Compound 43, [4-Aminomethyl-phenylacetyl](1c)*AE(2c)WQ[Dab](2c)[7-AzaTrp][2-Nal][Aib]E(1c)[Dab][3-(3-Pyridyl)-Ala]-[NHMe]], the “% displacement (hIL-23R binding)” value (human IL-23R) is reported as 101%, the IC50 (human IL-23R) is reported as 0.048 nM and the remaining at 4 h, 10 µM [1] is reported as 92%. The remaining at 4 h, 10 µM ([2]; 4 h) was 98%.

With H-EC(4a)WLC(5a)YYRNC(5a)NC(4a)M-[NH2] the not cleaved [3] was 99% remaining after 4 h.

H-GC(1a)TC(2a)WEC(2a)WWLC(1a)S-[NH2] showed a not cleaved [3] of 94% remaining after 4 h.

Work on “[4-Aminomethyl-phenylacetyl](1c)*FE(2c)WQ[Dab](2c)[Y(2-aminoethoxy)][2-Nal][2-Me-Leu]E(1c)[Dab][3-(3-Pyridyl)-Ala]” yielded a not cleaved [3] of 101% remaining after 4 h.

With “[4-Aminomethyl-phenylacetyl](1c)*SE(2c)WQ[Dab](2c)[Y(2-aminoethoxy)][2-Nal][2-Me-Leu]E(1c)H[3-(3-Pyridyl)-Ala]” the not cleaved [3] was 95% remaining after 4 h.

“[4-Aminomethyl-phenylacetyl](1c)*SE(2c)WQ[Dab](2c)[Y(2-aminoethoxy)][2-Nal][2-Me-Leu]E(1c)Q[3-(3-Pyridyl)-Ala]” showed a not cleaved [3] of 93% remaining after 4 h.

In the case of “[4-Aminomethyl-phenylacetyl](1c)*SE(2c)WQ[Dab](2c)[Y(2-aminoethoxy)][2-Nal][2-Me-Leu]E(1c)S[3-(3-Pyridyl)-Ala]”, the not cleaved [3] is reported as 99% remaining after 4 h.

“[4-Aminomethyl-phenylacetyl](1c)*SE(2c)WQ[Dab](2c)[Y(2-aminoethoxy)][2-Nal][2-Me-Leu]E(1c)[2-Me-Ser][3-(3-Pyridyl)-Ala]” gave a not cleaved [3] of 96% remaining after 4 h.

Work on “[4-Aminomethyl-phenylacetyl](1c)*SE(2c)WQ[Dab](2c)[Y(2-aminoethoxy)][2-Nal][2-Me-Leu]E(1c)[Dab]-[NH-(4-(pyridin-3-yl)butanyl)]” yielded a not cleaved [3] of 108% remaining after 4 h.

“[4-Aminomethyl-phenylacetyl](1c)*SE(2c)WQ[Dab](2c)[Y(2-aminoethoxy)][2-Nal][2-Me-Leu]E(1c)[Dab]H[3-(3-Pyridyl)-Ala]-[NH2]” showed a not cleaved [3] of 93% remaining after 4 h.

Molecule “[4-Aminomethyl-phenylacetyl](1c)*SE(2c)WQ[Dab](2c)[Y(2-aminoethoxy)][2-Nal][2-Me-Leu]E(1c)[Dab][N-Me-3-(3-Pyridyl)-Ala]-[NH2]” has a not cleaved [3] of 103% remaining after 4 h.

“[4-Aminomethyl-phenylacetyl](1c)*SE(2c)WQ[Dab](2c)[Y(2-aminoethoxy)][2-Nal][2-Me-Leu]E(1c)[Dab][{d}3-(3-Pyridyl)-Ala]-[NH2]” showed a not cleaved [3] of 105% remaining after 4 h.

For “[4-Aminomethyl-phenylacetyl](1c)*SE(2c)WQ[Dab](2c)[Y(2-aminoethoxy)][2-Nal][2-Me-Leu]E(1c)[Nle][3-(3-Pyridyl)-Ala]”, the not cleaved [3] was 90% remaining after 4 h.

In the case of “[4-Aminomethyl-phenylacetyl](1c)*SE(2c)WQ[Dab](2c)[Y(2-aminoethoxy)][2-Nal][2-Me-Leu]E(1c)[Ser(OMe)][3-(3-Pyridyl)-Ala]”, the not cleaved [3] is reported as 102% remaining after 4 h.

With “[4-Aminomethyl-phenylacetyl](1c)*SE(2c)WQ[Dab](2c)[Y(2-aminoethoxy)][2-Nal][2-Me-Leu]E(1c)[hSer][3-(3-Pyridyl)-Ala]” the not cleaved [3] was 103% remaining after 4 h.

Work on “[4-Aminomethyl-phenylacetyl](1c)*SE(2c)WQ[Dab](2c)[Y(2-aminoethoxy)][2-Nal][2-Me-Leu]E(1c)[{d}S][3-(3-Pyridyl)-Ala]” yielded a not cleaved [3] of 91% remaining after 4 h.

In the case of “[4-Aminomethyl-phenylacetyl](1c)*SE(2c)W[K(Ac)][Dab](2c)[Y(2-aminoethoxy)][2-Nal][2-Me-Leu]E(1c)[Dab][3-(3-Pyridyl)-Ala]”, the not cleaved [3] is reported as 90% remaining after 4 h.

With “[4-Aminomethyl-phenylacetyl](1c)*SE(2c)W[Q(pyrrolidin)][Dab](2c)[Y(2-aminoethoxy)][2-Nal][2-Me-Leu]E(1c)[Dab][3-(3-Pyridyl)-Ala]” the not cleaved [3] was 96% remaining after 4 h.

Work on “[Ac]-[Abu](16i)QTWQC(16i)[Y(2-aminoethoxy)]W[2-Me-Lys]ENG-[NH2]” yielded a not cleaved [3] of 100% remaining after 4 h.

B1: I4 (isomer 3) (peptide)
peptide: H-ECWLCYYRNCNCM-NH2
modifications: linker 5-10, 2-12 via 1,3‑dithio‑propan‑2‑one
notes: compound from Heinis et al., 2020, synthesised for comparison
For B1, the “% displacement (hIL-23R binding)” value [4] was 84% and the “hIL-23 (pSTAT3) antagonist % inhibition” value [5] was 23%.
